Patent EP1275386A1, “SOLID […] IMPROVED ABSORBABILITY” (FUJISAWA PHARMACEUTICAL CO., LTD., priority 2000, dated 2001)

Experiments:
[1] = Test on solubility of active component in water (Test Example 1); format: physicochemical; conditions: 15mg equivalent of Active Component 1 in 7.5 mL of water at 37 °C, agitated with a stirrer; dihydrate
Excerpt: Compared was the solubility of the solid dispersions obtained in Examples 2, 3 and 5 (referred to as "Preparation 2," "Preparation 3" and "Preparation 5," respectively, hereinafter) containing as an active ingredient N-(3,4-dimethoxybenzyl)-2-[(trans-4-formamidocyclohexyl)amino]-5-nitrobenzamide dihydrate (referred to as "Active Component 1" hereinafter), the amorphous Active Component 1 obtained in Comparative Example 1 and the crystal Active Component 1 obtained in Production Example 1. The test was performed by adding Preparations 2, 3 and 5, the amorphous Active Component 1 and the crystal Active Component 1 each containing 15mg equivalent of Active Component 1 to 7.5 mL of water heated to 37 °C, agitating the resulting mixtures with a stirrer and measuring the concentration of Active Component 1 in the solutions. The results are shown in Fig. 1, which is a graphical representation showing the change with time of the solubility in water of Preparations 2, 3 and 5, the amorphous Active Component 1 and the crystal Active Component 1. […]

[2] = Test on crystal state of Active Component 1 by DSC, storage at 70 °C for 7 days (Test Example 2); format: physicochemical
Description: Preparations 2 and 3 containing Active Component 1 and the amorphous Active Component 1 after being stored at 70 °C for 7 days were tested on the crystal state of Active Component 1 by differential scanning calorimetry (DSC for short hereinafter). […]

| Structure (SMILES) | Maximum Concentration Achieved of Active Component 1 in water [1] [µg/mL] | D S C analysis results ([2]; After storage at 70 °C for 7 days) | D S C analysis results ([2]; Before storage) | change of crystal state of Active Component 1 ([2]; after being stored at 70 °C for 7 days, DSC) |
| --- | --- | --- | --- | --- |
| COc1ccc(CNC(=O)c2cc([N+](=O)[O-])ccc2N[C@H]2CC[C@H](NC=O)CC2)cc1OC.O.O [Amorphous Active Component 1, N-(3,4-dimethoxybenzyl)-2-[(trans-4-formamidocyclohexyl)amino]-5-nitrobenzamide dihydrate] | 8.68 | Endothermic peak caused by melting indicative of existence of crystal was recognized. | Endothermic peak caused by melting indicative of existence of crystal was not recognized. | changed from the amorphous state to a crystal state |
| COc1ccc(CNC(=O)c2cc([N+](=O)[O-])ccc2N[C@H]2CC[C@H](NC=O)CC2)cc1OC.O.O [Crystal Active Component 1, N-(3,4-dimethoxybenzyl)-2-[(trans-4-formamidocyclohexyl)amino]-5-nitrobenzamide dihydrate] | 0.38 |  |  |  |
